Format in all cases: cell-based, Saccharomyces cerevisiae
Test [1] relates to S. cerevisiae W303-1A. Put plainly: secondary screen, zone size on agar. Particulars: 20 ng FK506, 10 mcg CsA, 10 mcg L733,560, 20 mcg aculeacin, 20 mcg papulacandin. The method, then:
(§1) For positively identifying glucan synthase inhibitors, screening with strain R560-1C and its parent W303-1A was instituted in a manner identical to that described for calcineurin inhibitors. Complete loss of a zone, or marked reduction in size, on R560-1C versus W303-1A indicates a glucan synthase inhibitor. No zones are seen with calcineurin inhibitors using this pair of strains.
(§2) Each strain is grown at 28°-30° C. in YPAD/10 mM CaCl2 medium with shaking at 220 rpm (to mid or late log phase). The cultures are diluted 1:10 with water, and the OD values of the dilutions are measured at 600 nm (against a blank of YPAD/10 mM CaCl2 similarly diluted 1:10 in water). The OD value is multiplied by 10 to estimate the OD of the culture. Portions (100 ml) of YPAD/10 mM CaCl2 medium containing 1.5% agar, equilibrated at 45° C. in a water bath, are seeded with culture such that the final cell density in the agar would have an OD value of 0.015 (i.e., 3×10^6 cfu/ml; a sample calculation is provided below). The seeded agar is poured into 500 cm^2 Nunc plates. Once the agar plates have solidified, 10 mcL aliquots of samples containing test compounds, such as fermentation extracts, are dissolved in water, 100% methanol or ethanol, or up to 50% DMSO and are placed on each member of the two-plate set in 11 by 8 arrays.
(§3) The plates are incubated for 48 h at 28°-30° C. Diameters of the zones are read to the outermost edge and recorded in mm. The clarity of the zone is reported as clear (no designation), hazy (h), or very hazy (vh). Very hazy zones are best seen by viewing the plate under an elevated light placed between the assay dish and a dark wall.

In test [2] the test system is S. cerevisiae R560-1C. The test is described as follows: secondary screen, zone size on agar. Particulars: 20 ng FK506, 10 mcg CsA, 10 mcg L733,560, 20 mcg aculeacin, 20 mcg papulacandin. As for the experimental part:
as §1, §2, §3

Test [3] deals with S. cerevisiae MY2145. The test is described as follows: MIC, growth inhibition. Particulars: MY2145. As for the experimental part:
(§4) Liquid broth microdilution assay
(§5) To quantitate the sensitivity of a particular strain of S. cerevisiae to a compound such as FK506, L-733,560, or nikkomycin Z, the following procedure was followed:
(§6) Dissolve drug of interest at 4× the desired initial concentration. For L-733,560, a 64 mcg/ml solution in sterile SD is prepared. Aliquot 75 mcL of the drug suspension into column 3. Using a multichannel pipettor, transfer 75 mcL from column 3 into column 4, pipet up and down three times to mix, and then transfer 75 mcL from column 4 into column 5. Repeat the serial dilution until column 12 is reached; after mixing, discard 75 mcL to waste.
(§7) Inoculate each strain in a given row by adding 75 mcL of the inoculum into columns 2 to 12. […] Column 2 serves as the no-drug or 100% growth control. The plate is then incubated overnight at 30° C. without shaking.
(§8) After approximately 24 hours of incubation, gently agitate the plate to resuspend the cells and read the absorbance at 600 nm wavelength. The % control growth for any given well can be calculated by dividing the absorbance value for that well by the value from column 2 in the same row. If this is done for each column, the data can be plotted as "Percent control growth" vs. "Drug concentration". The resulting dose-response curve can be used to compare the drug sensitivities of various strains.
(§9) The data in the following table are the minimum concentration of the various drugs required to inhibit the growth of each the mutants and their parent X2180-1A.

Test [4] concerns S. cerevisiae MY2144 (fks 1-3). Put plainly: MIC, growth inhibition. Conditions: MY2144 (fks 1-3). As for the experimental part: as §4, §5, §6, §7, §8, §9
The subject of test [5] is S. cerevisiae X2180-1A. Put plainly: MIC, growth inhibition. Conditions: minimum concentration required to inhibit growth. As for the experimental part:
as §4, §5, §6, §7, §8, §9

Test [6] relates to S. cerevisiae FKS1 pcr1 (fks2-1): MY2257, MY2258. Put plainly: MIC assay. Particulars: less than 10% growth, 42 hours. The method, then: (§10) The sensitivities of pcr1(fks2-1) fks1-1 and pcr1(fks2-1) FKS1 strains to L-733,560, L-636,947 (Aculeacin), and L-687,781 (Dihydropapulocandin) were determined in MIC assays. Briefly, strains were grown to stationary phase in 5.0 ml of liquid YPAD medium. MY2256 precultures were grown in liquid YPAD10Ca. MIC assays were performed in flat well microtiter plates in triplicate. Each well of the microtiter plate was filled with 100 mcL of YPAD medium. To the first well, 100 mcL of a 4× solution of drug in YPAD medium was added. To serve as a control, a stock solution of […] of YPAD was made. 100 mcL of this solution was added to the initial well for strains grown in the presence of solvent but the absence of drug. Two-fold serial dilutions of the drug were performed down the plate.
(§11) Cultures were diluted to 5×10^5 cells/ml in YPAD (1 OD660 =3.3×10^7 cells/ml). 100 mcL of diluted culture was added to each well, resuspended, and incubated at 28° C. After 42 hours, cultures were resuspended and cells densities measured in an SLT Laboratories 340 ATTC microtiter plate reader. The MICs concentrations presented in the table below represent the concentrations of drug that result in less than 10% growth of the strain grown in the absence of drug.

Test [7] deals with S. cerevisiae fks1-1 pcr1 (fks2-1): MY2256, YFK0996-11B, MY2259, MY2260. Put plainly: MIC assay. Particulars: less than 10% growth, 42 hours. The method, then:
as §10, §11

Test [8] has as its system S. cerevisiae wild type YFK0005. Put plainly: MIC assay. Conditions: less than 10% growth of no-drug control, 42 hours, 28° C. As for the experimental part: as §10, §11
Test [9] has as its system S. cerevisiae fks1-1 PCR1 YFK0688-14B. Put plainly: MIC assay. Particulars: less than 10% growth of no-drug control, 42 hours, 28° C. As for the experimental part: as §10, §11

Consider dihydropapulacandin [L-687,781], for which the “Secondary Screen Zone size (mm)” value was 15-18 mm in test [1] and 14-16 mm in test [2]. The MIC (in general, the smallest concentration in the dilution series that meets the test's criterion for growth inhibition) in [3] is 5.5 µg/mL; in test [4], 15 µg/mL; in [5] it was 5.5 µg/mL; in test [6] it was more than 40 µg/mL; in test [7], more than 40 µg/mL; in test [8], 40 µg/mL. Besides, the “MIC” value in test [9] is 10 µg/mL.

The values above are taken from patent publication US5821353A, “DNA encoding 1,3 beta-D glucan synthase subunits” (Merck & Co., Inc., priority 1996, dated 1998).
